# pIC50: −log10 of the molar value.
# Target: T1, rat NaPi-2b (Rattus norvegicus, UniProt Q9JJ09)
# T1 construct: expressed in transfected cells; host or cells: Xenopus oocytes injected with cRNA
# T1 sequence (Q9JJ09 1-695): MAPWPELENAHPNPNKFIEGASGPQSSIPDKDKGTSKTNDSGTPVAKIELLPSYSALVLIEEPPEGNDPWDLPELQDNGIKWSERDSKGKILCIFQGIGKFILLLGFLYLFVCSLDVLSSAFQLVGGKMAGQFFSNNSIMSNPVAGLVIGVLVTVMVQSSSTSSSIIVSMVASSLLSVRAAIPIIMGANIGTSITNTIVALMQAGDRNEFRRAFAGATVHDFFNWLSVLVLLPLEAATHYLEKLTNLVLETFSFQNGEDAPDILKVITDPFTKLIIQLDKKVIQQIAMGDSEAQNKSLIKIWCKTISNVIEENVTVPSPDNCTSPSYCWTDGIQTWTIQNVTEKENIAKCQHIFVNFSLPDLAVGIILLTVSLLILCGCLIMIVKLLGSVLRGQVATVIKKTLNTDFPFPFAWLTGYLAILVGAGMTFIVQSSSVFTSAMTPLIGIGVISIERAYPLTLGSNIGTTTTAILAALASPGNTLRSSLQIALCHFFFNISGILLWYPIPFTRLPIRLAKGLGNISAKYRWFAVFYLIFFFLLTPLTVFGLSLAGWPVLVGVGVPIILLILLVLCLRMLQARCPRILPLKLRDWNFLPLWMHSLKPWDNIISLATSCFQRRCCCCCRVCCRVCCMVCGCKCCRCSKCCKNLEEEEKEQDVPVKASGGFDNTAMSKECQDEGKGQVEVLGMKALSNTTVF
# Assay: Sodium-dependent phosphate uptake of Xenopus oocytes which expressed NaPi-2b (32P)
# Type: cell-based
# Details: for pIC50: Xenopus oocytes expressing rat NaPi-2b, 32P radioactive phosphorus, read-out: IC50 (phosphate uptake inhibitory activity); for inhibition at 300 µM: phosphate uptake, oocytes expressing rat NaPi-2b, determined from inhibition curve
# Procedure, shortened: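 Percent inhibition at 300 μM and 100 μM comes from the same inhibition curve of 32P uptake. Assay used oocytes expressing rat NaPi-2b after 2 days of culture.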
Structure (SMILES),pIC50,inhibition at 300 µM
"CN(C)CCn1nnnc1SCc1cccc(C(=O)Nc2ccc(Cl)cc2C(=O)N/N=C/c2cccc(O)c2)c1 [Compound 470, N-[4-Chloro-2-(3-hydroxy-benzylidene-hydrazinocarbonyl)-phenyl]-3-[1-(2-dimethylamino-ethyl)-1H-tetrazol-5-ylsulfanylmethyl]-benzamide]",4.63,–
O=C(Nc1ccccc1C(=O)N/N=C/c1ccc(F)cc1)c1cccc(OC(F)(F)F)c1 [Compound 121],5.39,–
"O=C(Nc1ccc(N2CCCC(C(=O)O)C2)cc1C(=O)N/N=C/c1ccc(Cl)c(C(F)(F)F)c1)c1cccc(CSCCO)c1 (stereo not shown) [Compound 925, 1-{3-(4-Chloro-3-trifluoromethyl-benzylidene-hydrazinocarbonyl)-4-[3-(2-hydroxy-ethylsulfanylmethyl)-benzoylamino]-phenyl}-piperidine-3-carboxylic acid]",4.59,–
"CCOc1ccc(C(=O)Nc2ccc(Br)cc2C(=O)N/N=C/c2ccc(C)c(C)c2)cc1 [Compound 504, N-[4-Bromo-2-(3,4-dimethyl-benzylidene-hydrazinocarbonyl)-phenyl]-4-ethoxy-benzamide]",4.72,–
"COc1ccc(/C=N/NC(=O)c2cscc2NC(=O)c2cccc(CN3CCN(CCO)CC3)c2)cc1 [Compound 984, 3-[4-(2-Hydroxy-ethyl)-piperazin-1-ylmethyl]-N-[4-(4-methoxy-benzylidene-hydrazinocarbonyl)-thiophen-3-yl]-benzamide]",4.66,–
"COc1ccc(C(=O)Nc2ccc(OCCCN(C)C)cc2C(=O)N/N=C/c2ccc(F)cc2)cc1OC [Compound 125, N-[4-(3-Dimethylamino-propoxy)-2-(4-fluoro-benzylidene-hydrazinocarbonyl)-phenyl]-3,4-dimethoxy-benzamide]",3.87,–
"CCN(CC)CCN(C)Cc1cccc(C(=O)Nc2cc(OCCOC)c(OCCOC)cc2C(=O)N/N=C/c2ccc(OC)cc2)c1 [Compound 1032, 3-{[(2-Diethylamino-ethyl)-methyl-amino]-methyl}-N-[2-(4-methoxy-benzylidene-hydrazinocarbonyl)-4,5-bis-(2-methoxy-ethoxy)-phenyl]-benzamide]",–,40%
"O=C(Nc1sc2c(c1C(=O)N/N=C/c1ccc(Cl)c(C(F)(F)F)c1)CCCC2)c1cccc(CN2CCC(CO)CC2)c1 [Compound 643, N-[3-(4-Chloro-3-trifluoromethyl-benzylidene-hydrazinocarbonyl)-4,5,6,7-tetrahydro-benzo[b]thiophen-2-yl]-3-(4-hydroxymethyl-piperidin-1-ylmethyl)-benzamide]",5.43,–
"Cc1ccc(/C=N/NC(=O)c2scc(C)c2NC(=O)c2cccc(CN3CCC(O)CC3)c2)cc1C [Compound 541, N-[2-(3,4-Dimethyl-benzylidene-hydrazinocarbonyl)-4-methyl-thiophen-3-yl]-3-(4-hydroxy-piperidin-1-ylmethyl)-benzamide]",–,32.2%
"CCc1ccc(C(=O)Nc2ccc(Br)cc2C(=O)N/N=C/c2ccc(F)cc2)cc1 [Compound 179, N-[4-Bromo-2-(4-fluoro-benzylidene-hydrazinocarbonyl)-phenyl]-4-ethyl-benzamide]",4.73,–
"Cc1cccc(/C=N/NC(=O)c2cc(Cl)ccc2NC(=O)c2cccc(CSCCS(=O)(=O)O)c2)c1 [Compound 692, 2-{3-[4-Chloro-2-(3-methyl-benzylidene-hydrazinocarbonyl)-phenylcarbamoyl]-benzylsulfanyl}-ethanesulfonic acid]",4.00,–
"O=C(Nc1ccc(Cl)cc1C(=O)N/N=C/c1ccc(Cl)c(C(F)(F)F)c1)c1cnc2ccccc2n1 [Compound 1006, Quinoxaline-2-carboxylic acid[4-chloro-2-(4-chloro-3-trifluoromethyl-benzylidene-hydrazinocarbonyl)-phenyl]-amide]",5.20,–
"CCSCCNCc1ccc(C(=O)Nc2ccc(Br)cc2C(=O)N/N=C/c2ccc(C)c(C)c2)cc1 [Compound 764, N-[4-Bromo-2-(3,4-dimethyl-benzylidene-hydrazinocarbonyl)-phenyl]-4-[(2-ethylsulfanyl-ethylamino)-methyl]-benzamide]",5.23,–
"Cc1ccc(/C=N/NC(=O)c2c(NC(=O)c3cccc(CN4CCC(N5CCCCC5)CC4)c3)sc3c2CCCC3)cc1 [Compound 616, 3-[1,4′]Bipiperidinyl-1′-ylmethyl-N-[3-(4-methyl-benzylidene-hydrazinocarbonyl)-4,5,6,7-tetrahydro-benzo[b]thiophen-2-yl]-benzamide]",4.86,–

# Other lines, results leading:
pIC50,inhibition at 300 µM,Structure (SMILES)
> 6.00,–,"Cc1ccc(/C=N/NC(=O)c2cc(Br)ccc2NC(=O)c2ccc(CSCCO)cc2)cc1C [Compound 265, N-[4-Bromo-2-(3,4-dimethyl-benzylidene-hydrazinocarbonyl)-phenyl]-4-(2-hydroxy-ethylsulfanylmethyl)-benzamide]"
> 6.00,–,"CCN(CC)CCN(C)Cc1cccc(C(=O)Nc2ccc(OCC3CCCCC3)cc2C(=O)N/N=C/c2ccc(C)cc2)c1 [Compound 1047, N-[4-Cyclohexylmethoxy-2-(4-methyl-benzylidene-hydrazinocarbonyl)-phenyl]-3-{[(2-diethylamino-ethyl)-methyl-amino]-methyl}-benzamide]"
5.57,–,"O=c1c2c3c(sc2nc(-c2cccc(CSc4nc[nH]n4)c2)n1/N=C/c1cccc(F)c1)CCCC3 [Compound 649, 3-[(3-Fluoro-benzylidene)-amino]-2-[3-(1H-[1,2,4]triazol-3-ylsulfanylmethyl)-phenyl]-5,6,7,8-tetrahydro-3H-benzo[4,5]thieno[2,3-d]pyrimidin-4-one]"
6.00,–,"O=C(Nc1sc2c(c1C(=O)N/N=C/c1ccc(F)cc1)CCCC2)c1cccc(CSCCCO)c1 [Compound 606, N-[3-(4-Fluoro-benzylidene-hydrazinocarbonyl)-4,5,6,7-tetrahydro-benzo[b]thiophen-2-yl]-3-(3-hydroxy-propylsulfanylmethyl)-benzamide]"
5.74,–,"CCN(CC)CCN(C)Cc1cccc(C(=O)Nc2sc3c(c2C(=O)N/N=C/c2ccc(C)cc2)CCCC3)c1 [Compound 610, 3-{[(2-Diethylamino-ethyl)-methyl-amino]-methyl}-N-[3-(4-methyl-benzylidene-hydrazinocarbonyl)-4,5,6,7-tetrahydro-benzo-[b]thiophen-2-yl]-benzamide]"
> 5.52,–,"Cc1ccc(/C=N/NC(=O)c2ccsc2NC(=O)c2cccc(CSCCCO)c2)cc1C [Compound 658, N-[3-(3,4-Dimethyl-benzylidene-hydrazinocarbonyl)-thiophen-2-yl]-3-(3-hydroxy-propylsulfanylmethyl)-benzamide]"
> 5.52,–,"CCN(CC)CCN(C)Cc1cccc(-c2nc3sc4c(c3c(=O)n2/N=C/c2ccc(OC)cc2)CCCC4)c1 [Compound 675, 2-(3-{[(2-Diethylamino-ethyl)-methyl-amino]-methyl}-phenyl)-3-[(4-methoxy-benzylidene-)-amino]-5,6,7,8-tetrahydro-3H-benzo[4,5]thieno[2,3-d]pyrimidin-4-one]"
5.98,–,"CCCN(CCC)c1ccc(NC(=O)c2cccc(CN(C)CCN(CC)CC)c2)c(C(=O)N/N=C/c2ccc(OC)cc2)c1 [Compound 912, 3-{[(2-Diethylamino-ethyl)-methyl-amino]-methyl}-N-[4-dipropylamino-2-(4-methoxy-benzylidene-hydrazinocarbonyl)-phenyl]-benzamide]"

# Source: patent US8134015B2, “Compound inhibiting in vivo phosphorous transport and medicine containing the same” (Kyowa Hakko Kirin Co., Ltd., priority 2003, dated 2012)
